Measurements: patent US20230157952A1, “METHOD FOR IMPROVING THE STABILITY OF A PHARMACEUTICAL COMPOSITION COMPRISING A HIGH PENETRATION DRUG, AND THE PHARMACEUTICAL COMPOSITION OBTAINED THEREFROM” (Techfields Inc., priority 2020, published 2023)
Values belong to the compound of their own block, whether it stands above or below them.

Columns and labels:
[1] = Stability of the pure HPDs (dry solid) at 25° C./RH 60%; assay type: physicochemical; settings: pure HPD, 25° C./RH 60%
[2] = Effect of pH value on the stability of the solution (purity); assay type: physicochemical; settings: 25° C.
[3] = Effect of solvent on the stability of the solution (purity at various pH values and temperature); assay type: physicochemical
[4] = Effect of concentration on the stability of the solution (purity over time); settings: at 5° C. in 15% ethanol
[5] = day 28, pH 1.0, 7% solution in water
[6] = day 28, pH 2.0, 7% solution in water
[7] = day 28, pH 3.0, 7% solution in water
[8] = day 28, pH 3.7, 7% solution in water
[9] = day 28, pH 5.0, 7% solution in water
[10] = day 28, pH 6.0, 7% solution in water
[11] = day 28, pH 7.0, 7% solution in water
[12] = day 28, pH 8.0, 7% solution in water

- Purity ([1]; 24 month): 98.0 ± 0.5
Structure (SMILES): Br.CCN(CC)CCOC(=O)[C@H](C)c1ccc(CC(C)C)cc1 (racemic) [C-1-4, 2-(diethylamino)ethyl (R,S)-2-(p-isobutylphenyl)propionate•HBr salt]

- Purity(%) from day 0-28 [2, 5]: 69.7 ± 0.3%
- Purity(%) from day 0-28 [2, 6]: 80.1 ± 0.3%
- Purity(%) from day 0-28 [2, 7]: 90.7 ± 0.3%
- Purity(%) from day 0-28 [2, 8]: 97.1 ± 0.3%
- Purity(%) from day 0-28 [2, 9]: 96.5 ± 0.3%
- Purity(%) from day 0-28 [2, 10]: 89.0 ± 0.4%
- Purity(%) from day 0-28 [2, 11]: 65.5 ± 0.3%
- Purity(%) from day 0-28 [2, 12]: 45.5 ± 0.5%
- Purity ([1]; 3 month, listed as A-1-4): 98.9 ± 0.1
- Purity ([1]; 6 month, listed as A-1-4): 98.6 ± 0.4
- Purity ([1]; 9 month): 98.1 ± 0.1
- Purity ([1]; 18 month): 97.9 ± 0.3
- Purity ([1]; 24 month): 97.7 ± 0.4
- Purity ([1]; 24 month, listed as A-1-4): 98.0 ± 0.4
- Purity ([1]; Day 0, listed as A-1-4): 98.6 ± 0.3
Structure (SMILES): Br.CCN(CC)CCOC(=O)C(C)c1ccc2cc(OC)ccc2c1 (racemic) [C-2, 2-(diethylamino)ethyl (R,S)-2-(6-methoxy-2-naphthyl) propionate•HBr salt]

- Purity(%) from day 0-28 [2, 5]: 68.2 ± 0.4%
- Purity(%) from day 0-28 [2, 6]: 80.1 ± 0.3%
- Purity(%) from day 0-28 [2, 7]: 90.3 ± 0.3%
- Purity(%) from day 0-28 [2, 8]: 96.8 ± 0.2%
- Purity(%) from day 0-28 ([2]; day 28, pH 4.0, 7% solution in water): 97.1 ± 0.2%
- Purity(%) from day 0-28 ([2]; day 28, pH 4.3, 7% solution in water): 97.1 ± 0.3%
- Purity(%) from day 0-28 ([2]; day 28, pH 4.6, 7% solution in water): 97.0 ± 0.3%
- Purity(%) from day 0-28 [2, 9]: 96.0 ± 0.3%
- Purity(%) from day 0-28 [2, 10]: 88.4 ± 0.3%
- Purity(%) from day 0-28 [2, 11]: 55.8 ± 0.4%
- Purity(%) from day 0-28 [2, 12]: 35.8 ± 0.5%
- Purity ([1]; 12 month): 98.1 ± 0.3
- Purity ([1]; 18 month): 97.9 ± 0.4
- Purity ([1]; 24 month): 97.8 ± 0.3
Structure (SMILES): CCN(CC)CCOC(=O)[C@H](C)c1ccc2cc(OC)ccc2c1.O=C(O)CC(O)(CC(=O)O)C(=O)O (racemic) [C-3, 2-(diethylamino)ethyl (R,S)-2-(6-methoxy-2-naphthyl) propionate•citric acid salt]

Structure (SMILES): CCN(CC)CCOC(=O)c1ccccc1OC(C)=O.Cl [2-(diethylamino)ethyl acetylsalicylate•HCl]
- Stability of the solution at a temperature higher than 40° C. and a pH lower than 3 or greater than 6 ([3]; 7% solution in water): not stable
- Effect of the solvent on the stability of the solution ([3]; 7% solution, 15% ethanol): did not affect the stability
- Effect of the solvent on the stability of the solution ([3]; 7% solution, 25% ethanol): did not affect the stability
- Effect of the solvent on the stability of the solution ([3]; 7% solution, 50% ethanol): did not affect the stability
- Effect of the amount of ethanol on the stability of the solution ([3]; 7% solution, tables 51-54 (water, 15%, 25%, 50% ethanol)): did not affect the stability
- Purity at day 0 ([4]; 0.01 wt %): 99.1%
- Purity at day 3 ([4]; 0.01 wt %): 93.1%
- Purity at day 7 ([4]; 0.01 wt %): 88.2%
- Purity at day 14 ([4]; 0.01 wt %): 81.4%
- Purity at day 21 ([4]; 0.01 wt %): 74.9%
- Purity at day 28 ([4]; 0.01 wt %): 68.3%
- Purity at day 60 ([4]; 0.01 wt %): 47.1%
- Purity at day 90 ([4]; 0.01 wt %): 30.1%
- Purity at day 0 ([4]; 0.1 wt %): 99.2%
- Purity at day 3 ([4]; 0.1 wt %): 95.8%
- Purity at day 7 ([4]; 0.1 wt %): 93.1%
- Purity at day 14 ([4]; 0.1 wt %): 89.5%
- Purity at day 21 ([4]; 0.1 wt %): 86.6%
- Purity at day 28 ([4]; 0.1 wt %): 83.7%
- Purity at day 60 ([4]; 0.1 wt %): 71.8%
- Purity at day 90 ([4]; 0.1 wt %): 59.9%
- Purity at day 0 ([4]; 1 wt %): 99.3%
- Purity at day 3 ([4]; 1 wt %): 97.6%
- Purity at day 7 ([4]; 1 wt %): 96.9%
- Purity at day 14 ([4]; 1 wt %): 95.2%
- Purity at day 21 ([4]; 1 wt %): 93.7%
- Purity at day 28 ([4]; 1 wt %): 91.5%
- Purity at day 60 ([4]; 1 wt %): 82.7%
- Purity at day 90 ([4]; 1 wt %): 74.1%
- Purity at day 0 ([4]; 3 wt %): 99.5%
- Purity at day 14 ([4]; 3 wt %): 96.4%
- Purity at day 21 ([4]; 3 wt %): 94.5%
- Purity at day 28 ([4]; 3 wt %): 92.7%
- Purity at day 60 ([4]; 3 wt %): 86.1%
- Purity at day 90 ([4]; 3 wt %): 80.2%
- Purity at day 0 ([4]; 5 wt %): 99.5%
- Purity at day 3 ([4]; 5 wt %): 99.3%
- Purity at day 7 ([4]; 5 wt %): 99.1%
- Purity at day 60 ([4]; 5 wt %): 96.7%
- Purity at day 90 ([4]; 5 wt %): 96.1%
- Purity at day 0 ([4]; 7 wt %): 99.6%
- Purity at day 3 ([4]; 7 wt %): 99.4%
- Purity at day 7 ([4]; 7 wt %): 99.3%
- Purity at day 14 ([4]; 7 wt %): 99.1%
- Purity at day 90 ([4]; 7 wt %): 97.2%
- Purity at day 0 ([4]; 8 wt %): 99.7%
- Purity at day 3 ([4]; 8 wt %): 99.5%
- Purity at day 7 ([4]; 8 wt %): 99.3%
- Purity at day 14 ([4]; 8 wt %): 99.3%
- Purity at day 90 ([4]; 8 wt %): 97.4%
- Purity at day 0 ([4]; 10 wt %): 99.6%
- Purity at day 3 ([4]; 10 wt %): 99.7%
- Purity at day 7 ([4]; 10 wt %): 99.4%
- Purity at day 14 ([4]; 10 wt %): 99.1%
- Purity at day 90 ([4]; 10 wt %): 97.2%
- Purity at day 0 ([4]; 15 wt %): 99.5%
- Purity at day 3 ([4]; 15 wt %): 99.5%
- Purity at day 7 ([4]; 15 wt %): 99.3%
- Purity at day 14 ([4]; 15 wt %): 99.2%
- Purity at day 90 ([4]; 15 wt %): 97.3%
- Purity at day 0 ([4]; 20 wt %): 99.5%
- Purity at day 3 ([4]; 20 wt %): 99.6%
- Purity at day 7 ([4]; 20 wt %): 99.3%
- Purity at day 14 ([4]; 20 wt %): 99.2%
- Purity at day 90 ([4]; 20 wt %): 97.3%
- Purity at day 0 ([4]; 30 wt %): 99.5%
- Purity at day 3 ([4]; 30 wt %): 99.5%
- Purity at day 7 ([4]; 30 wt %): 99.4%
- Purity at day 14 ([4]; 30 wt %): 99.4%
- Purity at day 90 ([4]; 30 wt %): 97.4%
- Purity at day 0 ([4]; 50 wt %): 99.7%
- Purity at day 3 ([4]; 50 wt %): 99.6%
- Purity at day 7 ([4]; 50 wt %): 99.5%
- Purity at day 14 ([4]; 50 wt %): 99.3%
- Purity at day 21 ([4]; 50 wt %): 99.2%
- Purity at day 90 ([4]; 50 wt %): 97.4%
- Stability when the concentration is 0.1% or lower [4]: not stable

- Purity ([1]; 24 month): 98.0 ± 0.1
- Purity ([1]; Day 0): 98.6 ± 0.3
Structure (SMILES): CCN(CC)CCOC(=O)[C@@H](C)c1ccc2cc(OC)ccc2c1.Cl [A-1-2, 2-(diethylamino)ethyl (S)-2-(6-methoxy-2-naphthyl) propionate•HCl salt]

- Purity ([1]; 18 month): 98.1 ± 0.2
- Purity ([1]; 24 month): 97.9 ± 0.2
Structure (SMILES): CCN(CC)CCOC(=O)[C@H](C)c1ccc2cc(OC)ccc2c1.Cl [A-1-3, 2-(diethylamino)ethyl (R)-2-(6-methoxy-2-naphthyl) propionate•HCl salt]
